{"source": "patent US5270047A", "about": "“Local delivery of dipyridamole for the treatment of proliferative diseases” (priority 1991, dated 1993)", "tested_on": "balloon-injured rat carotid arteries", "test": "Effect of systemic (dietary) dipyridamole upon intimal thickening after balloon injury of the left common carotid artery", "assay_type": "in vivo, male Sprague-Dawley rats", "conditions": "two weeks; for Area of Intimal Thickening: control 0.120 ± 0.014", "method": "Balloon injury to the left common carotid arteries of male Sprague-Dawley rats (350-400 g) was accomplished by three passes of an inflated 2F Fogarty balloon catheter (Baxter Healthcare, McGaw Park, Ill.) as described by Clowes et al., Lab Invest. 49:208-215 (1983). Animals were anesthetized with Ketamine (80 mg/kg, intramuscular, Aveco, Ft. Dodge, Iowa) and Rompun (16 mg/kg, intramuscular, Mobay Corp., Shawnee, Kans.). Entry of the balloon catheter to the left common carotid artery was made via a nick in the external carotid artery, which was tied off at the end of the surgical procedure. Dipyridamole was systemically administered for two weeks (0.03 and 0.10% wt/wt, as an admixture in the diet, equivalent to approximately 30 and 100 mg/kg/day, respectively).", "key": {"[1]": {"conditions": "0.03% in diet wt/wt (approximately 30 mg/kg/day)"}, "[2]": {"conditions": "0.10% in diet wt/wt (approximately 100 mg/kg/day)"}}, "data": [{"smiles": "OCCN(CCO)c1nc(N2CCCCC2)c2nc(N(CCO)CCO)nc(N3CCCCC3)c2n1", "note": "[Dipyridamole, 2,6-bis(diethanolamino)-4,8-dipiperidinopyrimido[5,4-d]pyrimidine]", "values": [{"measurement": "Area of Intimal Thickening (% of control)", "setting": "[1]", "value": "97.6 % of control"}, {"measurement": "Area of Intimal Thickening", "setting": "[1]", "value": "0.116 ± 0.017", "unit": "mm^2"}, {"measurement": "effect upon intimal thickening in the balloon-injured rat carotid arteries", "setting": "0.03 and 0.10% wt/wt in the diet", "value": "No significant effect upon intimal thickening"}, {"measurement": "Area of Intimal Thickening (% of control)", "setting": "[2]", "value": "90.8 % of control"}, {"measurement": "Area of Intimal Thickening", "setting": "[2]", "value": "0.109 ± 0.014", "unit": "mm^2"}]}]}
